From patent EP4527828A1, “BIPHENYL COMPOUND, PHARMACEUTICAL COMPOSITION, METHOD FOR PREPARING SAME, AND USE THEREOF” (Longivitron (Suzhou) Biotechnology Co., Ltd, priority 2022, dated 2023)

Assays:
[1] = target: T1, LAG3/MHCII (Homo sapiens, UniProt P18627); assay: HTRF binding inhibition of LAG3 and its ligand MHCII; conditions: for IC50: binding inhibition LAG3/MHCII; for inhibition at 10 µM: compound at 10 µM, read-out: Inhibition rate
T1 sequence (P18627 23-450 limits assumed): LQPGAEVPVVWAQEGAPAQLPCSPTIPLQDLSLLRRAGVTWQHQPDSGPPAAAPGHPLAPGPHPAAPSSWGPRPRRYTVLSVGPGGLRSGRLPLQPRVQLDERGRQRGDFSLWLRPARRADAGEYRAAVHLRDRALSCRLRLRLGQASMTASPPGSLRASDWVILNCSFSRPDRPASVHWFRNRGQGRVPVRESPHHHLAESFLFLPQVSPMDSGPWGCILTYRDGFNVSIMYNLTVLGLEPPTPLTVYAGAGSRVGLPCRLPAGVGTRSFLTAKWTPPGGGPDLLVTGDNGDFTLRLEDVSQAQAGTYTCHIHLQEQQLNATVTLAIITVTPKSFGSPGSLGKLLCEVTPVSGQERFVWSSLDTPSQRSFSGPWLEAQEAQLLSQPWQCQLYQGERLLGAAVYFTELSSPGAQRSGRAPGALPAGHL
Method: HTRF (Homogeneous time-resolved fluorescence) is based on two techniques, fluorescence resonance energy transfer (FRET) and time-resolved fluorescence (TRF). The detection was carried out using a 384-well plate. 2 µL of a compound to be tested with an appropriate concentration was collected, 4 µL of Tag1-LAG3 protein (with a final concentration of 10 nmol·L^-1) was added, 4 µL of Tag2-MHCII (with a final concentration of 20 nmol·L^-1) was added, and the plate was incubated at room temperature for 15 min. 10 µL of Anti-Tag1-Tb working solution (prepared by adding 25 µL of Anti-Tag1-Tab mother solution to 2475 µL of dilution buffer) was added, 10 µL of Anti-Tag2-XL665 working solution (prepared by adding 25 µL of Tag2-XL665 mother solution to 2475 µL of dilution buffer) was added, and the plate was sealed with a film and incubated at room temperature for 1 h. The detection was carried out using a Perkin Elma Envision instrument.

[2] = target: T2, Human FGL1 protein (Homo sapiens, UniProt Q08830); assay: SPR interaction assay, human FGL1; format: binding; conditions: SPR
T2 sequence (Q08830 23-312): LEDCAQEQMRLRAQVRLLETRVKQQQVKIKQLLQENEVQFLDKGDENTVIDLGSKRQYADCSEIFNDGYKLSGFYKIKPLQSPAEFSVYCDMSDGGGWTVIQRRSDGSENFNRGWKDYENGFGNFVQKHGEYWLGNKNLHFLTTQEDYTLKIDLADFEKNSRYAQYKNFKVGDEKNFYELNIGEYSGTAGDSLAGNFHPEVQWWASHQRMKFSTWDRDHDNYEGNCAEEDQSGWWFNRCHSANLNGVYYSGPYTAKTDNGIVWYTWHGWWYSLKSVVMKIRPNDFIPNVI
Excerpt: (§1) A surface plasmon is an electromagnetic wave on a metal surface and is generated by the interaction of photons and electrons which are freely vibrated. Surface plasmon resonance (SPR) is an optical phenomenon that occurs on the surfaces of two media, and such a phenomenon can be induced by photons or electrons. When light enters an optically thinner medium from an optically denser medium, the phenomenon of total reflection occurs, and an evanescent wave is generated and enters the optically thinner medium. When the totally reflected evanescent wave meets the plasmon wave on the metal surface, resonance may occur, the energy of the reflected light decreases, and a resonance peak occurs on the energy spectrum of the reflected light. Such a resonance is called surface plasmon resonance. The angle of incidence causing the surface plasmon resonance is called an SPR angle. An SPR biosensor provides a sensitive, non-labeled detection technique for monitoring intermolecular interactions in real time. The sensor detects the change in the SPR angle, and the SPR is related to the refractive index of the metal surface. When an analyte binds to the chip surface, the refractive index of the chip surface changes, thus causing the change in the SPR angle. This is the basic principle for the SPR biosensor to detect intermolecular interactions in real time. During the interaction analysis, the change in the SPR angle is recorded on the sensorgram in real time.
(§2) Protein coupling buffer solution: 1.05× PBS-P+; 1.02× PBS-P+
(§3) Interaction buffer solution: 1.0× PBS-P+, 5% DMSO; 1.0× PBS-P+, 2% DMSO

[3] = target: T3, Mouse LAG3 protein (Mus musculus, UniProt Q61790); assay: SPR interaction assay, CM5 chip amino coupling, mouse LAG3; format: binding
T3 sequence (Q61790 24-521): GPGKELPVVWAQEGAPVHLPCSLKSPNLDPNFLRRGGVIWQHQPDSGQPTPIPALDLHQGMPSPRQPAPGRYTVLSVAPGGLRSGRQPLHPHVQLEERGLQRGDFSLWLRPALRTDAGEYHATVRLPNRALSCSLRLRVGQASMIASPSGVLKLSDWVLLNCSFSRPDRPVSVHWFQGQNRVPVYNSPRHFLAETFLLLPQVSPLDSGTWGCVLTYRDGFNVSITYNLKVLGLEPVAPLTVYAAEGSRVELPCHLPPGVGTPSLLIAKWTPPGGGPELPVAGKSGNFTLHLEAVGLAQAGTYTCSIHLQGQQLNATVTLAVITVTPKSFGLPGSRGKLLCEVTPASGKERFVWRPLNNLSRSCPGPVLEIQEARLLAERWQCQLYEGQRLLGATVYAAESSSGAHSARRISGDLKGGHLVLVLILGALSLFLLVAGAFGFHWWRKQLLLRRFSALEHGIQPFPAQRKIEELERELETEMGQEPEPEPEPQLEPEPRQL
Excerpt: as §1
(§4) Through the information query, the theoretical isoelectric point of the LAG3 protein is about 9.82, and the amino coupling method was contemplated to immobilize the protein. Since the main ligands of the LAG3 protein are FGL1 and MHCII proteins, after the LAG3 protein was coupled, the FGL1 protein sampling method was used to verify the protein activity.
as §2, §3
(§5) In this experiment, by using the CM5 chip amino coupling method, the human LAG3 protein was immobilized to the Fc2 or Fc3 channel, and the mouse LAG3 protein was immobilized to the Fc3 or Fc4 channel.
(§6) LAG3 protein coupling conditions were as follows: the concentration was about 25 µg/mL, the system was sodium acetate solution with a pH of 5.5, the chip activation time was 420 s, and the blocking time was 420 s.
(§7) LAG3 protein coupling conditions were as follows: the concentration was about 50 µg/mL, the system was sodium acetate solution with a pH of 4.5, the chip activation time was 420 s, and the blocking time was 420 s.

[4] = target: T4, Human LAG3 protein (Homo sapiens, UniProt P18627); assay: SPR interaction assay, CM5 chip amino coupling, human LAG3; format: binding
T4 sequence (P18627 23-525): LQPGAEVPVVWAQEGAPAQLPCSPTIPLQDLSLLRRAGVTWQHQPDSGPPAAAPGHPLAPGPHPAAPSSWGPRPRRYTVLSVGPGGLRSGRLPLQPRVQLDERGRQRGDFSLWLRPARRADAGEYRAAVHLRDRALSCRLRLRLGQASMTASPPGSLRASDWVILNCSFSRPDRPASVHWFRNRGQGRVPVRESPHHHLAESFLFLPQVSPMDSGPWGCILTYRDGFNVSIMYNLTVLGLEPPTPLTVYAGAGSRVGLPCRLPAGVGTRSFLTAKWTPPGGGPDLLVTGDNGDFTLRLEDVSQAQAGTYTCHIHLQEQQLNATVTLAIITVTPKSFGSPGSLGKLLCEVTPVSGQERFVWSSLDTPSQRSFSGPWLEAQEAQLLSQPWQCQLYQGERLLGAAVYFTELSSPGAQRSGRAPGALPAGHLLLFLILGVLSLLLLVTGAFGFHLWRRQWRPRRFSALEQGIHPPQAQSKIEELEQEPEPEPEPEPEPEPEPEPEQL
Excerpt: as §1, §4, §2, §3, §5, §6, §7

O=C1CCCCCC(=O)c2ccc(OC3CCCC3)c(c2)-c2cc1ccc2O [Compound 3]
IC50 [1]: 24.2 µM

CCCCCOc1ccc2cc1-c1cc(ccc1OCCCCC)C(=O)CCCCCC2=O [Compound 5]
IC50 [1]: 33.2 µM

COCCCCOc1ccc2cc1-c1cc(ccc1OCCCCOC)C(=O)CCCCCC2=O [Compound 7]
IC50 [1]: 35.4 µM

CCCCCCOc1ccc(C(=O)NCCCCN)cc1-c1cc(C(=O)OC)ccc1OCCCCCC [Compound 12]
IC50 [1]: > 100 µM

COc1ccc2cc1-c1cc(ccc1OC)C(=O)CCCCCC2=O [Compound 1, 1^6,2^6-dimethoxy-1,2(1,3)-diphenylcyclononane-3,9-dione]
inhibition at 10 µM [1]: 25.7%

CCCCCCCOc1ccc2cc1-c1cc(ccc1OCCCCCCC)C(=O)CCCCCC2=O [Compound 6]
IC50 [1]: 25.7 µM

CCCCCCOc1ccc(C(=O)O)cc1-c1cc(C(=O)NCCNC(=O)C(F)(F)F)ccc1OCCCCCC [Compound 11]
IC50 [1]: 7.96 µM

CCCCCCOc1ccc(C(=O)O)cc1-c1cc(C(=O)NCCCCCNC(=O)C(F)(F)F)ccc1OCCCCCC [Compound 10]
IC50 [1]: 9.91 µM

O=C1CCCCCC(=O)c2ccc(O)c(c2)-c2cc1ccc2O [Compound 2, 1^6,2^6-dihydroxy-1,2(1,3)-diphenylcyclononane-3,9-dione]
inhibition at 10 µM [1]: 45.9%

CCCCCCOc1ccc(C(=O)O)cc1-c1cc(C(=O)NCCCNC(=O)C(F)(F)F)ccc1OCCCCCC [Compound 9]
interaction with the human FGL1 protein [2]: does not interact with the human FGL1 protein | Rmax ([2]; ligand FGL1 protein): 3.346 E+5 RU | Note ([2]; ligand FGL1 protein, bound or not bound): Not bound | IC50 [1]: 5.67 µM | interaction with the mouse LAG3 protein [3]: does not interact with the mouse LAG3 protein | Rmax ([3]; ligand Mouse LAG3 protein): 8.130 E+4 RU | Note ([3]; ligand Mouse LAG3 protein, bound or not bound): Not bound | interaction with the human LAG3 protein [4]: interacts with the human LAG3 protein | Rmax ([4]; ligand Human LAG3 protein): 129.5 RU | Kd ([4]; ligand Human LAG3 protein, Compound 9 fitted in steady-state mode): 324 µM | Note ([4]; ligand Human LAG3 protein, bound or not bound): Bound
